From the supplement of paper PMC10307832

Experiments:
Test in all cases: relative viability (nuclei count vs DMSO), 5 days (fraction); higher = more cells survive
Indole-3-carbinol = compound: OCc1c[nH]c2ccccc12 [Indole-3-carbinol]
Method in brief: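 Following overnight incubation at 37 °C, lung cancer cell lines in 1536-well plates were pinned with five library-drug doses (not always all listed) in √10 steps on vehicle-anchored plates. The cells then spent 5 days without medium change before a combined fix, permeabilisation and Hoechst stain, 4× imaging and MetaXpress nuclear counts. Viability is the treated-to-vehicle ratio of nuclei, taken as the median across plates. Only plates with control CV below 25% and at least one doubling passed.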

[1] = compound: OCc1c[nH]c2ccccc12 [Indole-3-carbinol] + CC1(C)CCC(c2ccc(Cl)cc2)=C(CN2CCN(c3ccc(C(=O)NS(=O)(=O)c4ccc(N[C@H](CCN5CCOCC5)CSc5ccccc5)c(S(=O)(=O)C(F)(F)F)c4)cc3)CC2)C1 [Navitoclax] (partner 0.5 µM)
Method in brief: (§1)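 Relative viability was taken as the ratio of nuclei in treated wells to nuclei in vehicle wells. Lung cancer cell lines in 1536-well plates received compounds by pin tool one day after seeding, either one drug alone or a fixed anchor-drug dose plus five library-drug doses (not always all listed) in √10 steps. Nuclei were counted on 4× images after 5 days of treatment, and values are medians of duplicate plates.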

[2] = compound: OCc1c[nH]c2ccccc12 [Indole-3-carbinol] + CS(=O)(=O)CCNCc1ccc(-c2ccc3ncnc(Nc4ccc(OCc5cccc(F)c5)c(Cl)c4)c3c2)o1 [Lapatinib] (partner 2 µM)
Method in brief: as §1

[3] = compound: OCc1c[nH]c2ccccc12 [Indole-3-carbinol] + Cc1nc(Nc2ncc(C(=O)Nc3c(C)cccc3Cl)s2)cc(N2CCN(CCO)CC2)n1 [Dasatinib] (partner 0.075 µM)
Method in brief: as §1

[4] = compound: OCc1c[nH]c2ccccc12 [Indole-3-carbinol] + O=C(CCCCCCC(=O)Nc1ccccc1)NO [Vorinostat] (partner 1 µM)
Method in brief: as §1

| Cell Line | relative viability (Indole-3-carbinol; 0.253 µM) | relative viability (Indole-3-carbinol; 0.8 µM) | relative viability (Indole-3-carbinol; 2.53 µM) | relative viability (Indole-3-carbinol; 8 µM) | relative viability ([1]; first compound 0.253 µM) | relative viability ([1]; first compound 0.8 µM) | relative viability ([1]; first compound 2.53 µM) | relative viability ([1]; first compound 8 µM) | relative viability ([2]; first compound 0.253 µM) | relative viability ([2]; first compound 0.8 µM) | relative viability ([2]; first compound 2.53 µM) | relative viability ([2]; first compound 8 µM) | relative viability ([3]; first compound 0.253 µM) | relative viability ([3]; first compound 0.8 µM) | relative viability ([3]; first compound 2.53 µM) | relative viability ([3]; first compound 8 µM) | relative viability ([4]; first compound 0.253 µM) | relative viability ([4]; first compound 0.8 µM) | relative viability ([4]; first compound 2.53 µM) | relative viability ([4]; first compound 8 µM) |
| --- | --- | --- | --- | --- | --- | --- | --- | --- | --- | --- | --- | --- | --- | --- | --- | --- | --- | --- | --- | --- |
| NCI-H2023 | 0.952 | 0.963 | 0.984 | 0.935 | 1.01 | 1.05 | 0.977 | 0.954 | 0.817 | 0.882 | 0.778 | 0.891 | 0.576 | 0.529 | 0.578 | 0.532 | 0.727 | 0.526 | 0.588 | 0.572 |
| NCI-H1395 | 0.945 | 0.92 | 0.929 | 0.881 | 1.23 | 1.16 | 1.19 | 1.08 | 1.04 | 0.873 | 0.931 | 0.829 | 0.386 | 0.392 | 0.458 | 0.413 | 0.694 | 0.65 | 0.628 | 1.05 |
| NCI-H2087 | 1.18 | 1.11 | 1.01 | 0.896 | 1.04 | 1.22 | 1.02 | 0.967 | 1.32 | 0.952 | 1.12 | 0.814 | 0.985 | 0.942 | 0.936 | 0.78 | 0.837 | 1.09 | 0.86 | 0.655 |
| NCI-H838 | 1.01 | 0.935 | 0.98 | 0.935 | 1.18 | 1.14 | 1.18 | 1.08 | 1.09 | 0.805 | 0.959 | 0.949 | 0.27 | 0.31 | 0.297 | 0.295 | 0.741 | 0.737 | 0.766 | 0.654 |
| NCI-H1793 | 0.943 | 0.841 | 1.04 | 0.906 | 0.423 | 0.402 | 0.508 | 0.393 | 1.18 | 0.621 | 0.702 | 0.623 | 0.433 | 0.422 | 0.435 | 0.394 | 0.915 | 0.798 | 0.898 | 0.632 |
| LC-2-ad | 1.04 | 0.951 | 0.971 | 1.01 | 0.644 | 0.553 | 0.376 | 0.399 | 0.977 | 0.974 | 0.893 | 0.938 | 0.657 | 0.735 | 0.589 | 0.595 | 0.765 | 0.742 | 0.696 | 0.662 |
| HCC-78 | 1.05 | 0.83 | 0.991 | 1.06 | 0.925 | 0.553 | 0.776 | 0.719 | 0.97 | 0.645 | 0.768 | 0.664 | 0.335 | 0.436 | 0.392 | 0.535 | 0.508 | 0.533 | 0.443 | 0.452 |
| LOU-NH91 | 0.957 | 0.933 | 0.95 | 1.04 | 0.71 | 0.599 | 0.673 | 0.74 | 0.762 | 0.706 | 0.748 | 0.771 | 0.621 | 0.573 | 0.585 | 0.535 | 0.924 | 0.865 | 0.961 | 0.945 |
| NCI-H1734 | 0.997 | 0.866 | 0.973 | 0.932 | 0.899 | 0.876 | 0.801 | 0.727 | 0.979 | 1.02 | 1.04 | 0.955 | 0.441 | 0.458 | 0.542 | 0.399 | 0.799 | 0.809 | 0.803 | 0.774 |
| NCI-H520 | 0.925 | 0.848 | 1.05 | 0.902 | 1.12 | 0.999 | 1.14 | 1.12 | 0.899 | 0.838 | 0.868 | 0.742 | 0.177 | 0.245 | 0.242 | 0.183 | 0.707 | 0.7 | 0.87 | 0.692 |
| UMC-11 | 0.977 | 1.03 | 0.966 | 0.983 | 0.259 | 0.308 | 0.329 | 0.325 | 1.03 | 0.953 | 0.91 | 0.951 | 0.482 | 0.451 | 0.514 | 0.45 | 0.332 | 0.377 | 0.432 | 0.398 |
| NCI-H596 | 1.07 | 0.948 | 0.967 | 1 | 0.977 | 1.02 | 0.921 | 0.826 | 1.05 | 0.779 | 0.936 | 0.985 | 0.649 | 0.665 | 0.659 | 0.595 | 0.552 | 0.522 | 0.565 | 0.675 |
| NCI-H1755 | 1.05 | 0.997 | 0.993 | 0.929 | 1.02 | 1.01 | 0.975 | 0.984 | 1.06 | 0.978 | 1.07 | 1.03 | 0.441 | 0.456 | 0.706 | 0.364 | 0.83 | 0.694 | 0.738 | 0.78 |
| SK-LU-1 | 1.11 | 0.969 | 1.03 | 0.996 | 0.899 | 0.783 | 0.795 | 0.653 | 0.941 | 0.903 | 1.06 | 0.829 | 0.194 | 0.211 | 0.178 | 0.208 | 0.795 | 0.865 | 0.757 | 0.839 |
| NCI-H647 | 1.06 | 0.703 | 1.1 | 0.948 | 1.16 |  | 1.09 | 1.01 | 1.24 | 0.904 | 0.87 | 0.969 | 0.18 |  | 0.222 | 0.167 | 0.731 | 0.529 | 0.731 | 0.538 |
| SW 1573 | 0.954 | 1.08 | 1.12 | 0.949 | 1.1 | 1.13 | 1.03 | 0.901 | 1.2 | 1.05 | 1.16 | 1.08 | 0.553 | 0.653 | 0.666 | 0.407 | 0.764 | 0.731 | 1.05 | 0.76 |
